Data as given in ChEMBL document CHEMBL1149764, “Synthesis, structure and biological activity of pseudopeptidic macrolides based on an amino alcohol” (Eur J Med Chem, 2008).
Converted amounts (≈) assume the structure as drawn.

Tests used:
[1] = Toxicity against human erythrocytes assessed as hemolytic activity at 1000 ug/ml; assay type: cell-based, Erythrocyte; settings: read-out: Activity
Cryptococcus neoformans = assay: Antifungal activity against Cryptococcus neoformans SYM 523 after 48 hrs standard broth microdilution method; assay type: functional
Aspergillus flavus = assay: Antifungal activity against Aspergillus flavus SYM 223 after 48 hrs standard broth microdilution method; assay type: functional
[2] = Toxicity against human erythrocytes assessed as hemolytic activity at 2000 ug/ml; assay type: cell-based, Erythrocyte; settings: read-out: Activity
Saccharomyces cerevisiae = assay: Antifungal activity against Saccharomyces cerevisiae SYM 3513 after 48 hrs standard broth microdilution method; assay type: functional
[3] = Antifungal activity against […] nigricans SYM 2417 after 48 hrs standard broth microdilution method; assay type: functional
Candida albicans = assay: Antifungal activity against Candida albicans ATCC 10231 after 48 hrs standard broth microdilution method; assay type: functional; settings: ATCC 10231, 48 h
Aspergillus niger = assay: Antifungal activity against Aspergillus niger ATCC 16404 after 48 hrs standard broth microdilution method; assay type: functional; settings: ATCC 16404, 48 h
Bacillus subtilis = assay: Antibacterial activity against Bacillus subtilis ATCC 6633 after 24 hrs by twofold dilution method; assay type: functional; settings: ATCC 6633, 24 h
[4] = Toxicity against human erythrocytes assessed as hemolytic activity at 4000 ug/ml; assay type: cell-based, Erythrocyte; settings: read-out: Activity
[5] = Antifungal activity against […] glutinis SYM 2209 after 48 hrs standard broth microdilution method; assay type: functional
[6] = Toxicity against human erythrocytes assessed as hemolytic activity at 250 ug/ml; assay type: cell-based, Erythrocyte; settings: read-out: Activity
Staphylococcus aureus = assay: Antibacterial activity against Staphylococcus aureus ATCC 25923 after 24 hrs by twofold dilution method; assay type: functional; settings: ATCC 25923, 24 h
Pseudomonas aeruginosa = assay: Antibacterial activity against Pseudomonas aeruginosa ATCC 27853 after 24 hrs by twofold dilution method; assay type: functional; settings: ATCC 27853, 24 h
[7] = Toxicity against human erythrocytes assessed as hemolytic activity at 500 ug/ml; assay type: cell-based, Erythrocyte; settings: read-out: Activity
Escherichia coli = assay: Antibacterial activity against Escherichia coli ATCC 25922 after 24 hrs by twofold dilution method; assay type: functional; settings: ATCC 25922, 24 h

Compound	hemolysis at 1000 ug/ml [1]	MIC (Cryptococcus neoformans)	MIC (Aspergillus flavus)	hemolysis at 2000 ug/ml [2]	MIC (Saccharomyces cerevisiae)	MIC [3]	MIC (Candida albicans)	MIC (Aspergillus niger)	MIC (Bacillus subtilis)	hemolysis at 4000 ug/ml [4]	MIC [5]	hemolysis at 250 ug/ml [6]	MIC (Staphylococcus aureus)	MIC (Pseudomonas aeruginosa)	hemolysis at 500 ug/ml [7]	MIC (Escherichia coli)
O=C1N[C@@H]2c3ccccc3C[C@@H]2OC(=O)c2cccc(c2)C(=O)O[C@H]2Cc3ccccc3[C@H]2NC(=O)c2cccc1c2	0%	4 µg/mL (≈ 7.16 µM)	2 µg/mL (≈ 3.58 µM)	0.5%	32 µg/mL (≈ 57.3 µM)	1 µg/mL (≈ 1.79 µM)	1 µg/mL (≈ 1.79 µM)	8 µg/mL (≈ 14.3 µM)	8 µg/mL (≈ 14.3 µM)	2%	4 µg/mL (≈ 7.16 µM)	0%	4 µg/mL (≈ 7.16 µM)	> 64 µg/mL	0%	16 µg/mL (≈ 28.6 µM)
O=C1O[C@H]2Cc3ccccc3[C@H]2NC(=O)c2cccc(n2)C(=O)N[C@@H]2c3ccccc3C[C@@H]2OC(=O)C2=CC=C1S2	4%	4 µg/mL (≈ 7.07 µM)	1 µg/mL (≈ 1.77 µM)	6%	8 µg/mL (≈ 14.1 µM)	1 µg/mL (≈ 1.77 µM)	1 µg/mL (≈ 1.77 µM)	4 µg/mL (≈ 7.07 µM)	> 64 µg/mL	14%	4 µg/mL (≈ 7.07 µM)	0.5%	8 µg/mL (≈ 14.1 µM)	> 64 µg/mL	1%	> 64 µg/mL
OC(Cn1cncn1)(Cn1cncn1)c1ccc(F)cc1F [FLUCONAZOLE]	–	32 µg/mL (≈ 104 µM)	64 µg/mL (≈ 209 µM)	–	32 µg/mL (≈ 104 µM)	–	16 µg/mL (≈ 52.2 µM)	64 µg/mL (≈ 209 µM)	–	–	> 64 µg/mL	–	–	–	–	–
O=C1O[C@H]2Cc3ccccc3[C@H]2NC(=O)c2cccc(n2)C(=O)N[C@@H]2c3ccccc3C[C@@H]2OC(=O)c2cccc1c2	3%	8 µg/mL (≈ 14.3 µM)	8 µg/mL (≈ 14.3 µM)	6%	16 µg/mL (≈ 28.6 µM)	4 µg/mL (≈ 7.15 µM)	4 µg/mL (≈ 7.15 µM)	4 µg/mL (≈ 7.15 µM)	4 µg/mL (≈ 7.15 µM)	9%	8 µg/mL (≈ 14.3 µM)	0%	32 µg/mL (≈ 57.2 µM)	32 µg/mL (≈ 57.2 µM)	0%	> 64 µg/mL
O=C(N[C@H](CO)[C@H](O)c1ccc([N+](=O)[O-])cc1)C(Cl)Cl [CHLORAMPHENICOL]	–	–	–	–	–	–	–	–	8 µg/mL (≈ 24.8 µM)	–	–	–	4 µg/mL (≈ 12.4 µM)	32 µg/mL (≈ 99 µM)	–	8 µg/mL (≈ 24.8 µM)
O=C1N[C@@H]2c3ccccc3C[C@@H]2OC(=O)c2cccc(n2)C(=O)O[C@H]2Cc3ccccc3[C@H]2NC(=O)c2cccc1n2	0%	16 µg/mL (≈ 28.5 µM)	> 64 µg/mL	1%	64 µg/mL (≈ 114 µM)	8 µg/mL (≈ 14.3 µM)	1 µg/mL (≈ 1.78 µM)	4 µg/mL (≈ 7.14 µM)	8 µg/mL (≈ 14.3 µM)	2%	16 µg/mL (≈ 28.5 µM)	0%	4 µg/mL (≈ 7.14 µM)	> 64 µg/mL	0%	32 µg/mL (≈ 57.1 µM)
O=C1N[C@@H]2c3ccccc3C[C@@H]2OC(=O)c2cccc(n2)C(=O)O[C@H]2Cc3ccccc3[C@H]2NC(=O)c2cccc1c2	2%	16 µg/mL (≈ 28.6 µM)	2 µg/mL (≈ 3.57 µM)	4%	32 µg/mL (≈ 57.2 µM)	4 µg/mL (≈ 7.15 µM)	4 µg/mL (≈ 7.15 µM)	8 µg/mL (≈ 14.3 µM)	> 64 µg/mL	7%	8 µg/mL (≈ 14.3 µM)	0%	16 µg/mL (≈ 28.6 µM)	> 64 µg/mL	0%	32 µg/mL (≈ 57.2 µM)
C[C@@H]1[C@H](O)[C@@H](C)/C=C/C=C/C=C/C=C/C=C/C=C/C=C/[C@H](O[C@@H]2O[C@H](C)[C@@H](O)[C@H](N)[C@@H]2O)C[C@@H]2O[C@](O)(C[C@@H](O)C[C@@H](O)[C@H](O)CC[C@@H](O)C[C@@H](O)CC(=O)O[C@H]1C)C[C@H](O)[C@H]2C(=O)O [AMPHOTERICIN B]	–	–	0.5 µg/mL (≈ 0.541 µM)	–	0.5 µg/mL (≈ 0.541 µM)	–	1 µg/mL (≈ 1.08 µM)	1 µg/mL (≈ 1.08 µM)	–	–	2 µg/mL (≈ 2.16 µM)	–	–	–	–	–
O=C1O[C@H]2Cc3ccccc3[C@H]2NC(=O)c2cccc(c2)C(=O)N[C@@H]2c3ccccc3C[C@@H]2OC(=O)C2=CC=C1S2	1%	4 µg/mL (≈ 7.08 µM)	8 µg/mL (≈ 14.2 µM)	4%	16 µg/mL (≈ 28.3 µM)	1 µg/mL (≈ 1.77 µM)	1 µg/mL (≈ 1.77 µM)	32 µg/mL (≈ 56.7 µM)	> 64 µg/mL	9%	4 µg/mL (≈ 7.08 µM)	0%	16 µg/mL (≈ 28.3 µM)	> 64 µg/mL	0%	16 µg/mL (≈ 28.3 µM)
